The numbers were not newly measured in patent US20230329971A1, “MEDICINAL PRODUCT COMPRISING A FLEXIBLE PLASTIC BAG AND AN AQUEOUS, READY-TO-USE SOLUTION OF MIDAZOLAM” (B. Braun Melsungen AG, priority 2020, published 2023), which cites them from elsewhere.

For the series the following is noted: in aqueous 5% dextrose solution or aqueous 0.9% sodium chloride solution.

As for `Cc1ncc2n1-c1ccc(Cl)cc1C(c1ccccc1F)=NC2.Cl` [midazolam hydrochloride, 8-chloro-6-(2-fluorophenyl)-1-methyl-4H-imidazo [1,5-a] [1, 4] benzodiazepine hydrochloride], the stable over is 30 days.
